US20090082355A1, “Method of Combating Root Weevils” (BASF SE, priority 2006, published 2009)

Columns and labels:
Type in all cases: in vivo, Otiorhynchus sulcatus (black vine weevil)
Otiorhynchus sulcatus [1] = assay: Control of Otiorhynchus sulcatus larvae in the woody ornamental Thuja occidentalis 'Holmstrub' (pot trial); settings: for Average feeding on roots: method B, index 1 no feeding observed to 4 most roots are damaged; for Average number of total larvae: treatment method B (drench), 20 eggs per pot, approx. 8 months after treatment
Procedure: Root cuttings of Thuja occidentalis ‘Holmstrub’ were potted in 3-liter containers using a standard soil substrate and first placed on an outdoor container field for four months and then transferred to an indoor container field at a temperature of 15-20° C. for another four months. In treatment method A, 750 g Suscon (chloropyrifos)/m^3 were mixed through the soil substrate. In treatment method B, the calculated amount of product was dissolved in 0.75 l water and added to the 3 litre pot as a drench. The soil of the pot was moistened before application. Eggs of Otiorhynchus sulcatus (20 eggs per pot) were added to the pots 15 weeks after treatment. Approximately 8 months after treatment, the average total number of live larvae (hereinafter also referred to as “average of total larvae”) and the average feeding on the roots were determined. The feeding on the roots was assessed according to the following index rating:
1 no feeding observed 2 slight feeding 3 significant feeding, few root tips are present 4 most roots are damaged
Each experiment was replicated 4 times.

Otiorhynchus sulcatus [2] = assay: Control of Otiorhynchus sulcatus adults on Euonymus fortunei 'Dart's Blanket': feeding effect; settings: 10 untreated weevils, 20° C.
Procedure: (§1) The efficacy of different doses of compound I-1 to control adults of the black vine weevil (Otiorhynchus sulcatus) was tested after direct contact and after feeding of the product. The formulated product was dissolved in water and the resulting aqueous solution/suspension was applied to black vine weevil adults directly or to Euonymus fortunei branches and the branches were exposed to black vine weevil adults.
4 plants of Euonymus fortunei ‘Dart's Blanket’ per treatment were sprayed until drip stadium. 10 untreated black vine weevils were put in a bucket in which 5 treated branches were placed. The buckets were randomly placed on Danish lorries in a climate cell. After 5 and 10 days the number of dead vine weevils were counted. The climate cell was adjusted at a constant temperature of 20° C. with 16 hours of light and 8 hours of darkness. Each treatment was replicated 4 times.

Otiorhynchus sulcatus [3] = assay: Control of Otiorhynchus sulcatus adults on Euonymus fortunei 'Dart's Blanket': contact effect; settings: 20° C.
Procedure: as §1
The treatments were applied by spraying 10 black vine weevils per petri-dish. The vine weevils were completely moistened after spraying. Afterwards the vine weevils were put into a bucket, in which 5 untreated branches of Euonymus fortunei ‘Dart's Blanket’ were placed. The buckets were randomly placed on Danish lorries in a climate cell. After 1 and 5 days, the number of dead vine weevils was counted. The climate cell was adjusted at a constant temperature of 20° C. with 16 hours of light and 8 hours of darkness. Each treatment was replicated 4 times.

Otiorhynchus sulcatus [4] = assay: Control of Otiorhynchus sulcatus eggs/first instar larvae on the Spreading Yew (treated potting medium); settings: DC formulation, Taxus media densiformis, 25 eggs per plant, live larvae recorded after 3 months
Procedure: Taxus media densiformis plants were planted in potting medium (60% parts pine bark, 20% hardwood bark and 20% peat) which had been treated before with a DC formulation of the active ingredient diluted with water. Plants were maintained outdoors under standard nursery management conditions throughout the growing season. Incubated vine weevil eggs were obtained from a culture of field-collected adults. Plants were infested with 25 brown eggs each. The total number of live larvae was recorded after 3 months. Each experiment was replicated 5 times.

[5] = branches sprayed with 1.14 g a.i./l
[6] = branches sprayed with 2.27 g a.i./l
[7] = branches sprayed with 4.56 g a.i./l
[8] = 1.14 g a.i./l sprayed on 10 weevils
[9] = 2.27 g a.i./l sprayed on 10 weevils
[10] = 4.56 g a.i./l sprayed on 10 weevils

Structure (SMILES): CCNC(=NNc1c(Cl)cc(C(F)(F)F)cc1Cl)C1(C)CC1(Cl)Cl (stereo not drawn) [Compound I-1, N-Ethyl-2,2-dichloro-1-methylcyclopropane-carboxamide-2-(2,6-dichloro-α,α,α-trifluoro-p-tolyl)hydrazone]
- Average feeding on roots (Otiorhynchus sulcatus [1]; 0.9125 g or ml product/3 l pot): 1.1
- Average number of total larvae (Otiorhynchus sulcatus [1]; 0.9125 g or ml product/3 l pot): 0.1
- Average feeding on roots (Otiorhynchus sulcatus [1]; 1.825 g or ml product/3 l pot): 1.0
- Average number of total larvae (Otiorhynchus sulcatus [1]; 1.825 g or ml product/3 l pot): 0.0
- Average feeding on roots (Otiorhynchus sulcatus [1]; 3.65 g or ml product/3 l pot): 1.0
- Average number of total larvae (Otiorhynchus sulcatus [1]; 3.65 g or ml product/3 l pot): 0.0
- phytotoxicity (Otiorhynchus sulcatus [1]; Thuja occidentalis 'Holmstrub' pot trial): no signs of phytotoxicity
- efficacy against the larvae (in words) (Otiorhynchus sulcatus [1]; all treatments in different doses): effective against the larvae of Otiorhynchus sulcatus
- control of larvae and feeding damage compared with the standard treatment (Otiorhynchus sulcatus [1]; versus Suscon (chloropyrifos)): better control of Otiorhynchus sulcatus larvae and feeding damage than the standard treatment of Suscon (chloropyrifos)
- Average number of dead adults after 5 days (Otiorhynchus sulcatus [2]; [5]): 8.5
- Average number of dead adults after 10 days (Otiorhynchus sulcatus [2]; [5]): 10.0
- Average number of dead adults after 5 days (Otiorhynchus sulcatus [2]; [6]): 6.5
- Average number of dead adults after 10 days (Otiorhynchus sulcatus [2]; [6]): 8.8
- Average number of dead adults after 5 days (Otiorhynchus sulcatus [2]; [7]): 8.8
- Average number of dead adults after 10 days (Otiorhynchus sulcatus [2]; [7]): 10.0
- Average number of dead adults after 1 day (Otiorhynchus sulcatus [3]; [8]): 0.5
- Average number of dead adults after 5 days (Otiorhynchus sulcatus [3]; [8]): 6.0
- Average number of dead adults after 1 day (Otiorhynchus sulcatus [3]; [9]): 0.3
- Average number of dead adults after 5 days (Otiorhynchus sulcatus [3]; [9]): 9.0
- Average number of dead adults after 1 day (Otiorhynchus sulcatus [3]; [10]): 0.8
- Average number of dead adults after 5 days (Otiorhynchus sulcatus [3]; [10]): 8.5
- control (Otiorhynchus sulcatus [4]; rate 250 ppm in potting medium): over 95%
- control (Otiorhynchus sulcatus [4]; rate 750 ppm in potting medium): over 95%
- control (Otiorhynchus sulcatus [4]; rate 1500 ppm in potting medium): over 95%
